What all share (format): cell-based
Data set [1] has as its system SUDHL10 cells. Nature of the data set: Induction of cytotoxicity in SUDHL10 cells (Assay 6). Conditions: 5 h, CellTiter-Glo; read-out: Cytotox SUDHL10 IC50 (median). A digest of the protocol: (§1)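 SUDHL5 and SUDHL10 cells plated and held overnight at 37° C, then incubated 5 h at 37° C with compound. Viability measured by CellTiter-Glo luminescence after 15 min shaking at room temperature. Cell-free medium wells served as control.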
A general note: ATP-based viability assays read luminescence as a measure of living cells.

The next data set relates to SNU-389 cells. The data set can be described thus: Antiproliferation assay SNU-389 (Assay 7). Conditions: 72 h, read-out: Antiproli SNU-389 IC50. The method, then: (§2) Assessment of the Anti-Proliferative Effect of Compounds in Different Cell Lines
(§3) The impact of compounds on the proliferation of different cell lines was assessed using the CellTiter-Glo® Luminescent Cell Viability reagent from Promega (G7573).
(§4) In parallel, cells were plated in a reference (day 0) plate for time zero determination. Cells were incubated in a humidified incubator at 37° C. overnight.
(§5) Rim wells were excluded. The cells were incubated for 72 h hours in a humidified incubator at 37° C. The day 0 plate was measured by adding 30 μL/well of CTG solution (CellTiter-Glo® Luminescent Cell Viability reagent, Promega G7573) to time zero wells in the reference plate followed by a 10 minutes incubation and luminescence reading at 0.1 ms. using the PHERAstar FS microplate reader (BMG Labtech).
(§6) After 72 h incubation, the treated plates were measured in the same way as the day 0 plate mentioned above. The Bella DRC Master Sheet was used to calculate IC50s, with CI=day 0 values and C0=DMSO control values.

The subject of the next data set is SK-MEL-2 cells. The data set can be described thus: Antiproliferation assay SK-MEL-2 (Assay 7). Conditions: Homo sapiens, read-out: Antiproli SK-MEL-2 IC50 median. On the procedure:
as §2, §3, §4, §5, §6

For data set [2], the system named is SUDHL5 cells. The data set can be described thus: Induction of cytotoxicity in SUDHL5 cells (Assay 6). To be noted: 5 h, CellTiter-Glo; read-out: Cytotox SUDHL5 IC50 (median). The method in brief: as §1
For a further data set, the system named is AMO-1 cells. The data set can be described thus: Antiproliferation assay AMO-1 (Assay 7). The method in brief:
(§7)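 After overnight attachment at 37 °C, cells received compound for 72 h in a humidified incubator. Viability was read by CellTiter-Glo luminescence. A separate day 0 plate defined starting cell number for IC50 fitting against DMSO controls.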

The subject of data set [3] is SUDHL5 cells. Nature of the data set: Induction of caspase-3/7 activity in SUDHL5 cells (Assay 4). A digest of the protocol: (§8)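 Read-out: Caspase-Glo 3/7 luminescence (1 h, 37 °C) after cells, plated overnight, were treated with compounds for 3 h at 37 °C. Signal corrected for cell-free medium background and expressed relative to DMSO control mean.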
Data set [4] concerns SUDHL5 cells. Nature of the data set: Antiproliferation assay SUDHL5 (Assay 7). A digest of the protocol:
as §7

The subject of the next data set is HMC-1-8 cells. Nature of the data set: Antiproliferation assay HMC-1-8 (Assay 7). A digest of the protocol: as §7
The test system of a further data set is A-431 cells. The data set can be described thus: Antiproliferation assay A-431 (Assay 7). To be noted: Homo sapiens, read-out: Antiproli A-431 IC50 median. On the procedure: as §2, §3, §4, §5, §6
In a further data set the test system is PA-1 cells. Nature of the data set: Antiproliferation assay PA-1 (Assay 7). Conditions: Homo sapiens, read-out: Antiproli PA-1 IC50 median. The method, then: as §2, §3, §4, §5, §6
In data set [5] the test system is SUDHL10 cells. Nature of the data set: Induction of caspase-3/7 activity in SUDHL10 cells (Assay 4). The method in brief:
as §8

The subject of another data set is DMS-114 cells. Nature of the data set: Antiproliferation assay DMS-114 (Assay 7). To be noted: Homo sapiens, read-out: Antiproli DM-S114 IC50 median. The method, then: as §2, §3, §4, §5, §6
In another data set the test system is SNU-16 cells. Nature of the data set: Antiproliferation assay SNU-16 (Assay 7). Conditions: Homo sapiens, read-out: Antiproli SNU-16 IC50 median. On the procedure:
as §2, §3, §4, §5, §6

Data set [6] has as its target MCL1 protein / biotinylated BIM BH3 peptide in RKO cells (Homo sapiens (Human), UniProt Q07820). Nature of the data set: PIxEL: protein-protein interaction in permeabilized cells by ELISA (Assay 5). Conditions: PIxEL IC50 (median). On the procedure: PIxEL: Protein-Protein Interaction in Permeabilized Cells by ELISA
Most MCL1 protein molecules are localized at the mitochondria outer membrane and sequester pro-apoptotic proteins through binding of their BCL2 homology domain 3 (BH3 domain). MEB buffer (150 mM mannitol, 10 mM HEPES pH 7.5, 50 mM KCl, 20 μM EDTA, 20 μM EGTA, 5 mM potassium succinate, 0.1% protease-free BSA (SIGMA) with low dose digitonin (0.002%) permeabilizes plasma membrane while leaves live mitochondria, where MCL1 maintains its native localization and conformation. Unlike biophysical assays (e.g. TR-FRET) that use truncated recombinant MCL1 protein, this assay uses full length endogenous MCL1 protein at mitochondria outer membrane. It measures the interaction between MCL1 protein and biotinylated BIM BH3 peptide. Compounds can compete with BIM BH3 peptide to bind to MCL1 protein.
On day 1, RKO colon cancer cell line cells were plated at 0.8 million cells/ml, 100 μl/well in 96-well flat bottom TC plates (Corning). MCL1 antibody (Santa Cruz sc-12756) were diluted at 200 fold (final concentration 1 μg/ml) in carbonate buffer (Thermo Fisher Scientific, pH 9.6), and 50 μl of diluted antibody was added to each well of high bind ELISA plates ([…]). Each plate was tapped to make sure liquid covering entire bottom of wells and incubate at 37° C. overnight.
On the second day, MCL1 antibody was washed from ELISA plate. 250 μl Odyssey® Blocking Buffer (PBS) (Li-Cor) was added to each well, incubated at room temperature for at least 1 hour, then washed once with 250 μl 1×PBST. Plates with RKO cells were gently washed once with 100 μl/well PBS, once with 100 μl/well MEB buffer without digitonin, then 100 μl of MEB buffer with 0.002% digitonin was gently added to each well. Compounds were added with HP Tecan compound dispenser in 3-fold dilution series, highest dose 30 μM, 10-dose per compound in quadruplicates. Biotin-BIM peptide (synthesized by 21st Century) was added with HP Tecan compound dispenser at 0.2 μM immediately after the addition of compounds. Plates were rocked for 1 hour at room temperature. Then MEB buffer was aspirated and 50 μl of CHAPS buffer (50 mM Tris-Cl, pH 7.4, 150 mM NaCl, 1% CHAPS, 1 mM EDTA, 1 mM EGTA, cOmplete protease inhibitors (Roche), PhosSTOP (Roche)) was added to each well. Plates were rocked for 1 hour at 4° C., then 45 μl cell lysate from each well were transferred to ELISA plates coated with MCL1 antibody. Plates were incubated overnight in the cold room with rocking.
On the third day, ELISA plates were washed once with 250 μl 1×PBST. Streptavidin-poly-HRP (Thermo Fisher Scientific) was diluted to 20 ng/ml in Odyssey blocking buffer plus 0.05% Triton-100, and 100 μl was added to each well of the ELISA plate. Plates were incubated at room temperature for 1 hour with rocking, then washed with 100 μl 1×PBST for 3 times. Each SuperSignal ELISA Femto Maximum Sensitivity substrate was added to a 50-ml tube and mixed, then 100 μl of mixed substrate was added to each well. Plates were shaken for 1 minute then luminescence was measured by Envision plate reader […]. Signal of each well were normalized by no-compound control and no-cell control. IC50 was calculated using Graphic Pad PRISM software.
(In general: In an ELISA, binding on a coated surface is turned into a signal by an enzyme label.)

[7] abbreviates: read-out: Caspase SUDHL5 EC50 (median); caspase-3/7 induction, 3 h.
The mark [8] stands for this setting: read-out: Antiproli SUDHL5 IC50 (median); 72 h, CellTiter-Glo.
Where [9] appears, read: read-out: Caspase SUDHL10 EC50 (median); caspase-3/7 induction, 3 h.
Setting [10] is: 72 h, CellTiter-Glo; read-out: Antiproli AMO-1 IC50 median.
The mark [11] stands for this setting: caspase-3/7 induction, 3 h; read-out: Caspase SUDHL5 EC50 (median).
The mark [12] stands for this setting: 72 h, CellTiter-Glo; read-out: Antiproli SUDHL5 IC50 (median).
Where [13] appears, read: 72 h, CellTiter-Glo; read-out: Antiproli HMC-1-8 IC50 median.
The mark [14] stands for this setting: caspase-3/7 induction, 3 h; read-out: Caspase SUDHL10 EC50 (median).
The mark [15] stands for this setting: DMS-114 cells, 72 h, CellTiter-Glo.

Structures can show the parent of a compound that is named as a salt. Where two headings read alike, the source gives them in different places.

MCL1 protein / biotinylated BIM BH3 peptide in RKO cells, sequence (Q07820 whole entry, the tested form may be a part): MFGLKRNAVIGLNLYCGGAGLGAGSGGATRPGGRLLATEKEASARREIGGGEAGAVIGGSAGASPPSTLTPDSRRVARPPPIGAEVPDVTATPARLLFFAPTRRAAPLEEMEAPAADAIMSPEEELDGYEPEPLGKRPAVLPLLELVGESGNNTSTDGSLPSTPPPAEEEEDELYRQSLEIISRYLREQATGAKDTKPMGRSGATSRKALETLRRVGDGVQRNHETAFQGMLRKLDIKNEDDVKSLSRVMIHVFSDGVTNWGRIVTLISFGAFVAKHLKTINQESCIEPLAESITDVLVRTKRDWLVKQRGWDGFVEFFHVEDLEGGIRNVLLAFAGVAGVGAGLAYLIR

Usually IC50 stands for the point on the concentration scale where inhibition reaches its midpoint. The EC50 is the concentration at which the effect is half-maximal. Regarding `CCc1c2c(nn1C)C(CCN1CCN(C)CC1)OCCCCn1c(C(=O)O)c(CCCOc3cccc4cc(F)ccc34)c3ccc(Cl)c-2c31` (single isomer, unassigned; stereoisomer 1) [Example 69, (+)-4-chloro-3-ethyl-7-{3-[(6-fluoronaphthalen-1-yl)oxy]propyl}-2-methyl-15-[2-(4-methylpiperazin-1-yl)ethyl]-2,10,11,12,13,15-hexahydropyrazolo[4′,3′:9,10][1,6]oxazacycloundecino[8,7,6-hi]indole-8-carboxylic Acid—N-ethylethanamine Salt (Stereoisomer 1)], the IC50 in the data set on SUDHL10 cells [1] came to 300 nM; in the data set on SNU-389 cells, 2410 nM; in the data set on SK-MEL-2 cells (SK-MEL-2, 72 h), 1810 nM; with SUDHL5 cells [2] it was 310 nM; with AMO-1 cells (read-out: Antiproli AMO-1 IC50 median; 72 h, CellTiter-Glo), 212 nM; in the data set on SUDHL5 cells [4] (setting [8]) it was 240 nM. The IC50 with HMC-1-8 cells (read-out: Antiproli HMC-1-8 IC50 median; 72 h, CellTiter-Glo) was determined as 4460 nM; with A-431 cells (A-431, 72 h), 1660 nM; in the data set with PA-1 cells (PA-1, 72 h), 795 nM; with DMS-114 cells (DMS-114, 72 h), 762 nM; with SNU-16 cells (SNU-16, 72 h), 1490 nM. Also, the EC50 in the data set on SUDHL5 cells [3] (setting [7]) was determined as 250 nM; in the data set with SUDHL10 cells [5] (setting [9]), 150 nM.
Take `CCc1c2c(nn1C)C(CCN1CCOCC1)N(C)CCCCn1c(C(=O)O)c(CCCOc3cccc4cc(F)ccc34)c3ccc(Cl)c-2c31` (single isomer, unassigned) [Example 94, 4-chloro-3-ethyl-7-{3-[(6-fluoronaphthalen-1-yl)oxy]propyl}-2,14-dimethyl-15-[2-(morpholin-4-yl)ethyl]-10,11,12,13,14,15-hexahydro-2H-pyrazolo[3′,4′:8,9][1,6]diazacycloundecino[10,11,1-hi]indole-8-carboxylic Acid]: the IC50 in the data set with SNU-389 cells (CellTiter-Glo) stood at 305 nM; in the data set on SK-MEL-2 cells (SK-MEL-2, 72 h, CellTiter-Glo), 299 nM; in the data set on SUDHL5 cells [2], 40 nM; in the data set on AMO-1 cells (setting [10]), 41.3 nM; in the data set with SUDHL5 cells [4] (setting [12]) it was 40 nM; in the data set with HMC-1-8 cells (setting [13]), 777 nM. The IC50 with A-431 cells (A-431, 72 h, CellTiter-Glo) was 361 nM; with PA-1 cells (PA-1, 72 h, CellTiter-Glo), 218 nM; in the data set on DMS-114 cells (setting [15]), 133 nM; in the data set on SNU-16 cells (SNU-16, 72 h, CellTiter-Glo) it was 221 nM. Besides, the EC50 with SUDHL5 cells [3] (setting [11]) was 36 nM; in the data set on SUDHL10 cells [5] (setting [14]) it was 23 nM.
For `CCc1c2c(nn1C)C(CCN1CCOCC1)OCC(F)(F)CCn1c(C(=O)O)c(CCCOc3cccc4cc(F)ccc34)c3ccc(Cl)c-2c31` (single isomer, unassigned; (+)) [Example 90, (+)-4-chloro-3-ethyl-12,12-difluoro-7-{3-[(6-fluoronaphthalen-1-yl)oxy]propyl}-2-methyl-15-[2-(morpholin-4-yl)ethyl]-2,10,11,12,13,15-hexahydropyrazolo[4′,3′:9,10][1,6]oxazacycloundecino[8,7,6-hi]indole-8-carboxylic Acid], the IC50 stood at 141 nM in the data set on SNU-389 cells (CellTiter-Glo); 252 nM in the data set with SK-MEL-2 cells (SK-MEL-2, 72 h, CellTiter-Glo); 30 nM in the data set on SUDHL5 cells [2]; 24.2 nM with AMO-1 cells (setting [10]); 30 nM in the data set on SUDHL5 cells [4] (setting [12]); 416 nM in the data set with HMC-1-8 cells (setting [13]). Further, the IC50 in the data set on A-431 cells (A-431, 72 h, CellTiter-Glo) was determined as 209 nM; in the data set with PA-1 cells (PA-1, 72 h, CellTiter-Glo) it was 422 nM; in the data set with DMS-114 cells (setting [15]) it was 163 nM; in the data set with SNU-16 cells (SNU-16, 72 h, CellTiter-Glo), 1110 nM. Further, the EC50 amounted to 27 nM with SUDHL5 cells [3] (setting [11]) and 13 nM with SUDHL10 cells [5] (setting [14]).
For `Cc1c2c(nn1C)C(CCN1CCOCC1)OCCCCn1c(C(=O)O)c(CCCOc3cccc4ccccc34)c3ccc(F)c-2c31` (single isomer, unassigned; enantiomer 1) [Example 8, 4-fluoro-2,3-dimethyl-15-[2-(morpholin-4-yl)ethyl]-7-{3-[(naphthalen-1-yl)oxy]propyl}-2,10,11,12,13,15-hexahydropyrazolo[4′,3′:9,10][1,6]oxazacycloundecino[8,7,6-hi]indole-8-carboxylic Acid—N-ethylethanamine Salt (Enantiomer 1)], the IC50 in the data set with SUDHL10 cells [1] was 140 nM; in the data set with SUDHL5 cells [2], 76 nM; in the data set on SUDHL5 cells [4] (setting [8]), 30 nM; in data set [6], 617 nM. The EC50 was found to be 64 nM in the data set with SUDHL5 cells [3] (setting [7]) and 150 nM in the data set on SUDHL10 cells [5] (setting [9]).

The values are drawn from patent US11440923B2, “Substituted macrocyclic indole derivatives” (Bayer Aktiengesellschaft, priority 2017, dated 2022).
